Source: ChEMBL document CHEMBL5032489, “Selective Discovery of GPCR Ligands within DNA-Encoded Chemical Libraries Derived from Natural Products: A Case Study on Antagonists of Angiotensin II Type I Receptor” (J Med Chem, 2021)
pIC50, pKd: −log10 of the molar value. Activity calls are given as the source filed them. The rule behind the calls is not given here.

Columns and labels:
[1] = molecular target: T1, Type-1 angiotensin II receptor (Homo sapiens) (UniProt P30556); test: (§1) Displacement of [125-I]-[Sar1, AngII from AT1R (unknown origin) expressed in Escherichia coli BL 21 (DE3) incubated for 2 hrs by radioimmunoassay
T1 sequence (whole entry): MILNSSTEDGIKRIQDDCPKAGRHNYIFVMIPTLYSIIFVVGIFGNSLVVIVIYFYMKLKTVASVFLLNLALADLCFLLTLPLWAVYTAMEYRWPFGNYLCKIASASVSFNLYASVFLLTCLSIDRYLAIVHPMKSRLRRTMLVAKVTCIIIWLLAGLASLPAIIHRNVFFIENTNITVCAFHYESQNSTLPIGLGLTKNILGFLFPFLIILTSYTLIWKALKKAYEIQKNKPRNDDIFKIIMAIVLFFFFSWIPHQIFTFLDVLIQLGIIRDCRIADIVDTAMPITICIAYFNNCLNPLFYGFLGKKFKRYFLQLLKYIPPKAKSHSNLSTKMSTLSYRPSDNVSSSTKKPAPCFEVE

[2] = molecular target: T2, Type-1 angiotensin II receptor (Homo sapiens, UniProt P30556); test: as §1
T2 sequence (P30556 whole entry): T1 sequence (whole entry)

Rattus norvegicus [3] = test: Antihypertensive activity against two-kidney two clip renovascular hypertensive Sprague-Dawley rat model assessed as decrease in systolic blood pressure at 8.3 mg/kg, po measured after 4 days of treatment by noninvasive sphygmomanometry; type: functional, organism-based; details: time 4.0 day
[4] = Cmax in two-kidney two clip renovascular hypertensive Sprague-Dawley rat model at 15 mg/kg, po by HPLC-MS/MS analysis; type: ADME, organism-based; parameters: route oral, dose 15 mg/kg; details: in vivo
[5] = Toxicity in two-kidney two clip renovascular hypertensive Sprague-Dawley rat model assessed as heart rate at 15 to 30 mg/kg, po measured after 4 days of treatment by noninvasive sphygmomanometry; type: organism-based; details: in vivo, 96 h, dose 15-30 mg/kg, time 4 day
[6] = AUC (0-infinity) in two-kidney two clip renovascular hypertensive Sprague-Dawley rat model at 30 mg/kg, po by HPLC-MS/MS analysis; type: ADME, organism-based; parameters: route oral, time infinity, dose 30 mg/kg; details: in vivo
[7] = Cmax in two-kidney two clip renovascular hypertensive Sprague-Dawley rat model at 5 mg/kg, po by HPLC-MS/MS analysis; type: ADME, organism-based; parameters: route oral, dose 5 mg/kg; details: in vivo
[8] = molecular target: T2, Type-1 angiotensin II receptor; test: Binding affinity to AT1R (unknown origin) expressed in Escherichia coli strain BL 21 (DE3) incubated for 20 mins by SDS PAGE analysis
Rattus norvegicus [9] = test: Antihypertensive activity against two-kidney two clip renovascular hypertensive Sprague-Dawley rat model assessed as decrease in diastolic blood pressure at 15 to 30 mg/kg, po measured after 4 days of treatment by noninvasive sphygmomanometry; type: functional, organism-based; details: dose 15-30 mg/kg, time 4.0 day
Rattus norvegicus [10] = test: Antihypertensive activity against two-kidney two clip renovascular hypertensive Sprague-Dawley rat model assessed as decrease in systolic blood pressure at 15 to 30 mg/kg, po measured after 4 days of treatment by noninvasive sphygmomanometry; type: functional, organism-based; details: dose 15-30 mg/kg, time 4.0 day
[11] = AUC (0-t) in two-kidney two clip renovascular hypertensive Sprague-Dawley rat model at 5 mg/kg, po by HPLC-MS/MS analysis; type: ADME, organism-based; parameters: dose 5 mg/kg; details: in vivo
[12] = AUC (0-infinity) in two-kidney two clip renovascular hypertensive Sprague-Dawley rat model at 15 mg/kg, po by HPLC-MS/MS analysis; type: ADME, organism-based; parameters: time infinity, route oral, dose 15 mg/kg; details: in vivo
[13] = AUC (0-t) in two-kidney two clip renovascular hypertensive Sprague-Dawley rat model at 15 mg/kg, po by HPLC-MS/MS analysis; type: ADME, organism-based; parameters: dose 15 mg/kg; details: in vivo
[14] = Cmax in two-kidney two clip renovascular hypertensive Sprague-Dawley rat model at 30 mg/kg, po by HPLC-MS/MS analysis; type: ADME, organism-based; parameters: route oral, dose 30 mg/kg; details: in vivo
[15] = AUC (0-infinity) in two-kidney two clip renovascular hypertensive Sprague-Dawley rat model at 5 mg/kg, po by HPLC-MS/MS analysis; type: ADME, organism-based; parameters: route oral, time infinity, dose 5 mg/kg; details: in vivo
[16] = AUC (0-t) in two-kidney two clip renovascular hypertensive Sprague-Dawley rat model at 30 mg/kg, po by HPLC-MS/MS analysis; type: ADME, organism-based; parameters: dose 30 mg/kg; details: in vivo

For `Cc1cc(Cn2cnc3c2C[C@@H](C(=O)O)N(C(=O)C(c2ccccc2)c2ccccc2)C3)ccc1N(C)C`, the Activity [1] was “inactive”.

`O=C(O)/C=C/c1ccc(O)c(O)c1` [CAFFEIC ACID] showed a pIC50 [2] of 6.90.

With `CCCCC(=O)N(Cc1ccc(-c2ccccc2-c2nnn[nH]2)cc1)[C@H](C(=O)O)C(C)C` the Activity (Rattus norvegicus [3]) was “Active”.

In the case of `NC[C@H](O)c1ccc(O)c(O)c1`, the Activity [1] was “inactive”.

In the case of `CCOC(=O)[C@@H](Cc1ccc(F)cc1)NC(=O)[C@@H](CC1CCCCC1)NC(=O)[C@@H](C)NC(=O)/C=C/c1ccc(O)c(O)c1`, the Cmax [4] was 220 ng/mL, the Activity [5] was “Non-Toxic” and the AUC [6] was 35096.1 µg·min/L. For the same compound, the Cmax [7] was 80.6 ng/mL, the pKd [8] was 9.31 and the Activity (Rattus norvegicus [9]) was “Active”. For the same compound, the pIC50 [2] was 7.71, the Activity (Rattus norvegicus [10]) was “Active” and the AUCt [11] was 5707.6 µg·min/L. For the same compound, the AUC [12] was 19332.5 µg·min/L, the AUCt [13] was 18123.5 µg·min/L and the Cmax [14] was 446 ng/mL. The AUC [15] was 6088 µg·min/L and the AUCt [16] was 34243 µg·min/L.
